Reference: US4745223A, “Mono-tertiary-alkylated toluenediamine and derivatives” (Air Products and Chemicals, Inc., priority 1985, dated 1988)

Key:
[1] = Pot life test of chain extenders in polyurethane-urea formulation; details: 50° C., log (relative viscosity) = I + A*(time) + B*(time)**2 + C*(time)**3
Procedure: A series of polyurethane-urea elastomers utilizing various chain extenders was prepared and evaluated in a pot life test system for the purpose of determining the reactivity of the chain extenders in standard urethane formulations relative to one another. The polyurethane-urea elastomers were formulated by reacting a prepolymer of poly(1,4-oxytetramethylene)glycol end-capped with 2,4-toluene diisocyanate, the prepolymer having an NCO content generally from 5-7%, with the test candidate chain extender aromatic diamine and a diol. The nominal stoichiometric equivalent ratio of isocyanate to diamine chain extender to diol for each sample is 2:1:1.
The test system for measuring pot life comprised a heated test chamber for holding 7 grams of test sample at a constant temperature (50° C.) and was equipped with a vertical perforated piston. This piston moves up and down through the test sample in timed relationship. (The temperature rise due to the exothermic reaction is discounted.) The force necessary to move the piston through the polymer sample is measured in arbitrary units, and the relationship of the force is plotted as a function of time. The force-pot life relationship of the urethane system during cure then is correlated to known force-viscosity relationships for the urethane-urea systems.
The coefficients apply to the equation:
log (viscosity)=I+A(time)+B(time)^2 +C(time)^3.
The coefficient of the first power term ("A") is a "quasi" reaction rate constant measuring initial reactivity. Smaller values in the quasi rate constant (A) indicate longer and desirable pot lives. The value T-5000 is the time in which the reaction product has a relative viscosity of 5000 units. Even though the value is an arbitrary value, that value is relevant for use in determining the performance of the test candidate in a RIM process or cast elastomers process. For injection molding of modest size parts, T-5000 may be about 2.5 minutes; whereas, the molding of large or intricate parts may require a T-5000 of greater than 5 minutes, e.g., 10 to 40 minutes for hand casting.

[2] = test system: Salmonella strain TA100; test: Ames mutagenic assay, strain TA100; type: cell-based
Procedure: (§1) A series of chain extenders was tested in the Ames mutagenic assay using five strains of Salmonella bacteria without (-) and with (+) metabolic activation. Table 6 provides the results of various test compounds including a variety of known aromatic diamine chain extenders against these five strains of Salmonella bacteria. The data are presented as the quantity of test compound in micrograms per test plate that gave positive mutagencity results.
(§2) From Pharmakon Research International, the Ames test data evaluation criteria in Table 5 are clearly defined: "In most tests with the Salmonella/Microsome Assay, results are either clearly positive or clearly negative. A positive result is defined as a reproducible, dose-related increase in the number of histidine-independent colonies. This dose-response relationship occasionally necessitates slight modification of the original doses in a repeat assay. If the historical control is within one standard deviation of the historical mean and the test chemical produces the highest increase equal to or greater than three times the solvent control value, the test chemical is considered positive. A negative result is defined as the absence of a reproducible increase in the number of histidine-independent colonies."

[3] = test system: Salmonella strain TA98; test: Ames mutagenic assay, strain TA98; type: cell-based; details: TA98, (+) with metabolic activation
Procedure: as §1, §2

[4] = test system: five strains of Salmonella bacteria; test: Ames test, overall outcome; type: cell-based; details: with and without metabolic activation
Procedure: as §1, §2

[5] = test system: Salmonella strain TA1538; test: Ames mutagenic assay, strain TA1538; type: cell-based
Procedure: as §1, §2

[6] = test system: Salmonella strain TA1537; test: Ames mutagenic assay, strain (TA1537), without (-) and with (+) metabolic activation; type: cell-based; details: first strain column, TA1537 as printed
Procedure: as §1, §2

[7] = test system: Salmonella strain TA1537; test: Ames mutagenic assay, second strain column (printed TA1537), without (-) and with (+) metabolic activation; type: cell-based; details: TA1537 as printed, (+) with metabolic activation
Procedure: as §1, §2

3-Cyclopentenyl-2,6-toluenediamine [3Cp26TDA]
lineshape coefficient A (quasi reaction rate constant, initial reactivity) [1]: .7173

Cc1c(N)ccc(C(C)C)c1N [3iP26TDA, 3-isoPropyl-2,6-toluendiamine]
lineshape coefficient A (quasi reaction rate constant, initial reactivity) [1]: .5074

CCC(C)(C)c1ccc(N)c(C)c1N [3tA26TDA, 3-tertiaryAmyl-2,6-toluenediamine]
lineshape coefficient A (quasi reaction rate constant, initial reactivity) [1]: .08902

Cc1c(N)ccc(C(C)(C)C)c1N [3tB26TDA, 3-tert-butyl-2,6-toluenediamine]
lineshape coefficient A (quasi reaction rate constant, initial reactivity) [1]: .06721 | lineshape coefficient A (quasi reaction rate constant, initial reactivity) ([1]; listed as Monotertiarybutylated 2,6-TDA): 0.06721

Cc1cc(N)c(N)c(C(C)(C)C)c1 [3tB34TDA, 5-tertiaryButyl-3,4-toluenediamine]
lineshape coefficient A (quasi reaction rate constant, initial reactivity) [1]: .2764

Cc1c(N)ccc(C2(C)CCCC2)c1N [3tMCp26TDA, 3-tertiaryMethylcyclopentyl-2,6-toluenediamine]
lineshape coefficient A (quasi reaction rate constant, initial reactivity) [1]: .1722

Cc1c(N)cc(C(C)(C)C)cc1N [4tB26TDA, 4-tertiaryButyl-2,6-toluenediamine]
lineshape coefficient A (quasi reaction rate constant, initial reactivity) [1]: 3.867 | lineshape coefficient A (quasi reaction rate constant, initial reactivity) ([1]; listed as 4-tertiarybutyl-2,6-toluenediamine): 3.87

Cc1cc(C(C)C)c(N)cc1N [5iP24TDA, 5-isoPropyl-2,4-toluenediamine]
lineshape coefficient A (quasi reaction rate constant, initial reactivity) [1]: 3.374

Cc1cc(C(C)(C)C)c(N)c(C)c1N [5tB24DAmX, 5-tertiaryButyl-2,4-diaminometaxylene]
lineshape coefficient A (quasi reaction rate constant, initial reactivity) [1]: .8716

CCc1cc(C)c(N)c(CC)c1N [35DE24TDA, 3,5-Diethyl-2,4-toluenediamine]
lineshape coefficient A (quasi reaction rate constant, initial reactivity) [1]: 1.350

CCc1cc(CC)c(N)c(C)c1N [35DE26TDA, 3,5-Diethyl-2,6-toluenediamine]
lineshape coefficient A (quasi reaction rate constant, initial reactivity) [1]: 5.572

Cc1cc(C(C)C)c(N)c(C(C)C)c1N [35DiP24TDA, 3.5-Diisopropyl-2,4-toluenediamine]
lineshape coefficient A (quasi reaction rate constant, initial reactivity) [1]: .7499

Cc1c(N)c(C(C)C)cc(C(C)C)c1N [35DiP26TDA, 3,5-Diisopropyl-2,6-toluenediamine]
lineshape coefficient A (quasi reaction rate constant, initial reactivity) [1]: 1.563

Cc1c(N)c(C(C)(C)C)cc(C(C)(C)C)c1N [35DtB26TDA, 3,5-Ditertiarybutyl-2,6-toluenediamine]
lineshape coefficient A (quasi reaction rate constant, initial reactivity) [1]: .1601 | quantity of test compound that gave positive mutagenicity results [2]: 50 micrograms per test plate | quantity of test compound that gave positive mutagenicity results [3]: 15 micrograms per test plate | Ames test result [4]: Ames positive | quantity of test compound that gave positive mutagenicity results [5]: 50 micrograms per test plate

CC(C)(C)c1ccc(N)cc1N [tBBDA, tertiaryButyl-2,4-benzenediamine]
quantity of test compound that gave positive mutagenicity results [3]: 1800 micrograms per test plate | quantity of test compound that gave positive mutagenicity results [5]: 1200 micrograms per test plate

chlorotoluenediamine [Cl-TDA]
quantity of test compound that gave positive mutagenicity results [2]: 500 micrograms per test plate | quantity of test compound that gave positive mutagenicity results ([6]; (+) with metabolic activation): 50 micrograms per test plate | quantity of test compound that gave positive mutagenicity results ([6]; (-) without metabolic activation): 500 micrograms per test plate | quantity of test compound that gave positive mutagenicity results [3]: 500 micrograms per test plate | Ames test result [4]: Ames positive | quantity of test compound that gave positive mutagenicity results [7]: 5000 micrograms per test plate | quantity of test compound that gave positive mutagenicity results [5]: 500 micrograms per test plate
